Values quoted from earlier work as cited in publication PMC3087488 (Journal of Oncology, 2011).

How the values were obtained:
PDGFR = tested on: PDGFR; parameters: method as in PMID 16951187; conditions: cited from earlier work
cytochrome P 450 3A = conditions: cited from earlier work

CC1(C)CNc2cc(NC(=O)c3cccnc3NCc3ccncc3)ccc21 [motesanib]
IC50 (PDGFR): 84 nM | route of metabolism (cytochrome P 450 3A): primarily metabolized by glucuronidation and cytochrome P 450 3A-mediated oxidation
